The experiment concerns the target PolQ ATPase enzyme (1-894) (Homo sapiens (Human), UniProt O75417). Kind of experiment: Polθ ATPase enzymatic assay (0.5 nM enzyme concentration), ADP-Glo. Conditions: average IC50; 0.5 nM PolQ ATPase enzyme (1-894). Format: biochemical. The method, boiled down:
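Enzyme (0.5 nM) pre-incubated 15 min at rt with 10-point inhibitor series in 50 mM Tris pH 7.5, 10% glycerol, 5 mM DTT, 10 mM MgCl2, 0.1 mg/ml BSA; reaction started with 20 nM fork DNA and 100 μM ATP, run 180 min at rt. ADP-Glo luminescence; IC50 from 4-parameter variable-slope fit.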

The structures appear in SMILES notation. Some results are limits rather than exact numbers.

Chain of PolQ ATPase enzyme (1-894) (O75417 1-894): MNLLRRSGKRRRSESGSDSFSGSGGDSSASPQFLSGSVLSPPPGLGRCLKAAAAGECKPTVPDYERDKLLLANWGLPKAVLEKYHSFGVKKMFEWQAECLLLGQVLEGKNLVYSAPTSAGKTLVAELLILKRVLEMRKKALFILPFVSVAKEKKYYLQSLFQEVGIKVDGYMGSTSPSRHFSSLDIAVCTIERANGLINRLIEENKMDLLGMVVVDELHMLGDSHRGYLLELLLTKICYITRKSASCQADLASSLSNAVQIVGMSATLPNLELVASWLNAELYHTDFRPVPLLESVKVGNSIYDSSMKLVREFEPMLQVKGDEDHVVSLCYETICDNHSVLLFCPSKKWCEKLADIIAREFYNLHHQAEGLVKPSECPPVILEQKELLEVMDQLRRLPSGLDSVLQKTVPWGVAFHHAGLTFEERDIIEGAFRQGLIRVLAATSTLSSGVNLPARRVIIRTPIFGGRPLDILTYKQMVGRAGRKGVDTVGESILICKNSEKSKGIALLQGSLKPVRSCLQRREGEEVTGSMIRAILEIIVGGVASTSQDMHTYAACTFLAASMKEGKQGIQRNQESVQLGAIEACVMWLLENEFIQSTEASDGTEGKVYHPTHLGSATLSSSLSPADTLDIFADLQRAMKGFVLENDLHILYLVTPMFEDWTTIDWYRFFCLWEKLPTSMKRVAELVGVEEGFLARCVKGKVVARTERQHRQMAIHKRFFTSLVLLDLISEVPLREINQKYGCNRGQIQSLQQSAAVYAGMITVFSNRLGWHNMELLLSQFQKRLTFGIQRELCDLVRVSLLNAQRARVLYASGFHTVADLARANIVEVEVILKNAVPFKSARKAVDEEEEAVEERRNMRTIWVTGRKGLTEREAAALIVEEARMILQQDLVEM

Regarding `COc1ccc(C(F)(F)F)cc1-c1cn(C)c(=O)cc1C(=O)Nc1nnc(C#CC2CCOCC2)s1` [Compound 337], the half-inhibitory concentration (IC50) is 9.2 nM.

In turn, `COc1cnc(C(F)(F)F)nc1-c1cnccc1C(=O)Nc1nnc(C#CC2CC2)s1` [Compound 338] registered an IC50 of 4.7 nM.

The compound `COc1ccc(Cl)nc1-c1cnccc1C(=O)Nc1nnc(C#CC2CC2)s1` [Compound 339] displayed an IC50 of 3.4 nM.

With `COc1cnc(Cl)cc1-c1cn2c(C#N)cnc2cc1C(=O)Nc1nnc(C#CC2CC2)s1` [Compound 341], half-maximal inhibition (IC50) was put at 3.2 nM.

`COc1cnc(Cl)cc1-c1cn2c(C(N)=O)cnc2cc1C(=O)Nc1nnc(C#CC2CC2)s1` [Compound 342] registered an IC50 of 13 nM. This IC50 is about 4.1-fold higher than that of the compound before.

For the compound `COc1ccc(C(F)(F)F)cc1-c1cn(C)c(=O)cc1C(=O)Nc1nnc(C#CC2COC2)s1` [Compound 343], the IC50 came to 8.4 nM.

In the case of `COc1ncc(Cl)cc1-c1cnccc1C(=O)Nc1nnc(C#CC2CC2)s1` [Compound 344], the IC50 is 4.3 nM. This IC50 lies about 2-fold lower than the previous one.

The compound `COc1ccc(C(F)(F)F)cc1-c1cn2ncnc2cc1C(=O)Nc1nnc(C#CC2CC2)s1` [Compound 345] showed an IC50 of 3.7 nM.

Turning to `COc1cnc(Cl)cc1-c1cn(CC(=O)N2CCOCC2)c(=O)cc1C(=O)Nc1nnc(C#CC2CC2)s1` [Compound 347], the IC50 was determined as 3.4 nM.

Compound `COc1cnc(C(F)F)cc1-c1cc(-c2cnn(C(F)F)c2)ncc1C(=O)Nc1nnc(C#CC2CC2)s1` [Compound 349] registered an IC50 below 0.25 nM.

`COc1cnc(C(F)F)cc1-c1cc(-c2ccn(C(F)F)n2)ncc1C(=O)Nc1nnc(C#CC2CC2)s1` [Compound 350]: the IC50 is below 0.25 nM.

As for `COc1cnc(C(F)F)cc1-c1cc(-c2nn(C)cc2C)ncc1C(=O)Nc1nnc(C#CC2CC2)s1` [Compound 351], the IC50 is below 0.25 nM.

In turn, `COc1cnc(C(F)F)cc1-c1cc(N2CCCC(F)C2=O)ncc1C(=O)Nc1nnc(C#CC2CC2)s1` (stereo not shown) [Compound 352] yielded an IC50 below 0.25 nM.

`COc1cnc(C(F)F)cc1-c1cc(N2CCC(C)(C)CC2=O)ncc1C(=O)Nc1nnc(C#CC2CC2)s1` [Compound 353] came in with an IC50 of 0.49 nM.

With `COc1cnc(C(F)F)cc1-c1cc(-c2nnc(C)o2)ncc1C(=O)Nc1nnc(C#CC2CC2)s1` [Compound 354], it took 0.27 nM to reach half-maximal inhibition (IC50).

`COc1cnc(C(F)F)cc1-c1cc(-c2cnn(C3CCOCC3)c2)ncc1C(=O)Nc1nnc(C#CC2CC2)s1` [Compound 355] displayed an IC50 of 0.3 nM. This IC50 and that of the compound before are within 1.5-fold of each other.

Regarding `COc1cnc(C(F)F)cc1-c1cc(N2CCn3cncc3C2=O)ncc1C(=O)Nc1nnc(C#CC2CC2)s1` [Compound 356], the IC50 was below 0.25 nM.

`COc1cnc(C(F)F)cc1-c1cc(N2CCN(C(C)=O)CC2=O)ncc1C(=O)Nc1nnc(C#CC2CC2)s1` [Compound 357] returned a half-inhibitory concentration (IC50) below 0.25 nM.

Compound `COC(=O)N1CCN(c2cc(-c3cc(C(F)F)ncc3OC)c(C(=O)Nc3nnc(C#CC4CC4)s3)cn2)C(=O)C1` [Compound 358] yielded an IC50 below 0.25 nM.

The compound `COc1cnc(C(F)F)cc1-c1cc(N2CC3(COC3)CC2=O)ncc1C(=O)Nc1nnc(C#CC2CC2)s1` [Compound 359] yielded an IC50 of 1.7 nM.

In turn, `COc1cnc(C(F)F)cc1-c1cc(N2CC3(CCOCC3)CC2=O)ncc1C(=O)Nc1nnc(C#CC2CC2)s1` [Compound 360] displayed an IC50 of 7.2 nM.

Compound `COc1cnc(C(F)F)cc1-c1cc(C2C[C@@H]2C(=O)N(C)C)ncc1C(=O)Nc1nnc(C#CC2CC2)s1` (stereo partly shown) [Compound 361] yielded an IC50 of 1.9 nM.

Consider `COc1cnc(C(F)F)cc1-c1cc(C2C[C@@H]2C(=O)N(C)C)ccc1C(=O)Nc1nnc(C#CC2CC2)s1` (stereo partly shown) [Compound 362], for which it took 1.4 nM to reach half-maximal inhibition (IC50).

Take `COc1cnc(C(F)F)cc1-c1cc(C2C[C@H]2C(=O)N(C)C)ccc1C(=O)Nc1nnc(C#CC2CC2)s1` (stereo partly shown) [Compound 363]: the IC50 is below 0.25 nM.

In turn, `COc1cnc(C(F)F)cc1-c1cc(N2CCNCC2=O)ncc1C(=O)Nc1nnc(C#CC2CC2)s1` [Compound 364] gave an IC50 of 0.559 nM. In other words, the sub-nanomolar range.

The compound `COc1cnc(C(F)F)cc1-c1cc(N2C(=O)[C@H]3CC[C@@H]2C3)ncc1C(=O)Nc1nnc(C#CC2CC2)s1` [Compound 365] returned a 50% inhibitory concentration (IC50) of 100 nM.

With `COc1cnc(C(F)F)cc1-c1cc(N2CCN(C(C)=O)CC2)ccc1C(=O)Nc1nnc(C#CC2CC2)s1` [Compound 366], the IC50 came out at 3 nM.

The compound `COc1cnc(C(F)F)cc1-c1cc(N2CCN(C)C(C)(C)C2=O)ncc1C(=O)Nc1nnc(C#CC2CC2)s1` [Compound 367] had an IC50 of 0.27 nM. This IC50 is about 11-fold lower than that of the compound before.

`COc1cnc(C(F)F)cc1-c1cc(N2C(=O)[C@@H]3CC[C@H]2C3)ncc1C(=O)Nc1nnc(C#CC2CC2)s1` [Compound 368] yielded an IC50 of 7.1 nM.

`COc1cnc(C(F)F)cc1-c1cc(-c2cc(C#N)n(C)n2)ncc1C(=O)Nc1nnc(C#CC2CC2)s1` [Compound 371]: the IC50 was found to be 8.1 nM.

On to `COc1cnc(C(F)F)cc1-c1cc(-c2cnn(C3COC3)c2)ccc1C(=O)Nc1nnc(C#CC2CC2)s1` [Compound 372], for which the IC50 was 0.39 nM.

Take `C#C[C@H]1CC1c1nnc(NC(=O)c2ccc(-c3nnc(C)o3)cc2-c2cc(C(F)F)ncc2OC)s1` (stereo partly shown) [Compound 373]: the 50% inhibitory concentration (IC50) turned out to be 4.6 nM.

On to `COc1cnc(C(F)F)cc1-c1cc(-c2nnc(C)o2)ccc1C(=O)Nc1nc(C#CC2CC2)cs1` [Compound 374], for which the IC50 is above 100 nM.

`[2H]C([2H])([2H])Oc1cnc(C(F)F)cc1-c1cc(-c2ccn(C)n2)ncc1C(=O)Nc1nnc(C#CC2CC2)s1` [Compound 375] yielded an IC50 below 0.25 nM.

`COc1cnc(C(F)F)cc1-c1cc(-c2nnc(C)o2)ccc1C(=O)Nc1nc(C#N)c(C#CC2CC2)s1` [Compound 376] yielded an IC50 of 3 nM.

Take `COc1cnc(C(F)F)cc1-c1cc(N2CCOC[C@@H]2C)ncc1C(=O)Nc1nnc(C#CC2CC2)s1` [Compound 377]: the 50% inhibitory concentration (IC50) is above 100 nM.

Compound `COc1cnc(C(F)F)cc1-c1cc(C#CC2CCOCC2)ncc1C(=O)Nc1nnc(C#Cc2cc(C)[nH]n2)s1` [Compound 378] gave an IC50 below 0.25 nM.

`COc1cnc(C(F)F)cc1-c1cc(N2CCOC[C@H]2C)ncc1C(=O)Nc1nnc(C#CC2CC2)s1` [Compound 379] returned an IC50 of 18 nM. That is a double-digit nanomolar value.

`COc1cnc(C(F)F)cc1-c1cc(N2CC(C)(C)CC2=O)ncc1C(=O)Nc1nnc(C#CC2CC2)s1` [Compound 380] registered an IC50 of 11 nM.

For `COc1cnc(C(F)F)cc1-c1cc(N2CC3CC(C3)C2=O)ncc1C(=O)Nc1nnc(C#CC2CC2)s1` [Compound 381], the IC50 was below 0.25 nM.

In the case of `COc1cnc(C(F)F)cc1-c1cc(N2CCN(C(=O)OC(C)C)CC2=O)ncc1C(=O)Nc1nnc(C#CC2CC2)s1` [Compound 382], the IC50 was below 0.25 nM.

As for `COc1cnc(C(F)F)cc1-c1cc(N2CC[C@H]3C[C@H]3C2=O)ncc1C(=O)Nc1nnc(C#CC2CC2)s1` [Compound 383], the IC50 was below 0.25 nM.

In the case of `COc1cnc(C(F)F)cc1-c1cc(N2CC[C@@H]3C[C@@H]3C2=O)ncc1C(=O)Nc1nnc(C#CC2CC2)s1` [Compound 384], the IC50 was below 0.25 nM.

For `COc1cnc(C(F)F)cc1-c1cc(N2CCN(CC3CC3)CC2=O)ncc1C(=O)Nc1nnc(C#CC2CC2)s1` [Compound 386], the IC50 is below 0.25 nM.

The compound `COc1cnc(C(F)F)cc1-c1cc(-n2ccc(C)cc2=O)ncc1C(=O)Nc1nnc(C#CC2CC2)s1` [Compound 387, N-(5-(cyclopropylethynyl)-1,3,4-thiadiazol-2-yl)-2″-(difluoromethyl)-5″-methoxy-4-methyl-2-oxo-2H-[1,2′:4′,4″-terpyridine]-5′-carboxamide] gave an IC50 below 0.25 nM.

For the compound `COc1cnc(C(F)F)cc1-c1cc(N2CC3CC3CC2=O)ncc1C(=O)Nc1nnc(C#CC2CC2)s1` (stereo not shown) [Compound 388], the IC50 is below 0.25 nM.

With `COc1cnc(C(F)F)cc1-c1cc(N2CC(C)CCC2=O)ncc1C(=O)Nc1nnc(C#CC2CC2)s1` (stereo not shown) [Compound 389], the IC50 was below 0.25 nM.

In turn, `COc1cnc(C(F)F)cc1-c1cc(N2CCCC(C)C2=O)ncc1C(=O)Nc1nnc(C#CC2CC2)s1` (stereo not shown) [Compound 390] had a half-inhibitory concentration (IC50) below 0.25 nM.

Take `COc1cnc(C(F)F)cc1-c1nc(-c2nnc(C)o2)ccc1C(=O)Nc1nnc(C#CC2CC2)s1` [Compound 391]: the IC50 is above 100 nM.

`COc1cnc(C(F)F)cc1-c1cc(-c2cnn(S(C)(=O)=O)c2)ncc1C(=O)Nc1nnc(C#CC2CC2)s1` [Compound 393] gave a half-maximal inhibitory concentration (IC50) below 0.25 nM.

With `COc1cnc(C(F)F)cc1-c1cc(N2CCCCCC2=O)ncc1C(=O)Nc1nnc(C#CC2CC2)s1` [Compound 394], the IC50 is below 0.25 nM.

In turn, `COc1cnc(C(F)F)cc1-c1cc(N2CCC3(CCC3)CC2=O)ncc1C(=O)Nc1nnc(C#CC2CC2)s1` [Compound 395] gave an IC50 of 0.25 nM.

With `C#CC1CC1c1nnc(NC(=O)c2ccc(N3CCOCC3=O)cc2-c2cc(C(F)F)ncc2OC)s1` (stereo not shown) [Compound 396], half-maximal inhibition (IC50) was put at 10 nM. Against the preceding compound, the IC50 is about 40-fold higher.

Compound `C#CC1CC1c1nnc(NC(=O)c2ccc(N3CCOCC3=O)cc2-c2cc(C(F)F)ncc2OC)s1` (stereo not shown) [Compound 397] yielded an IC50 of 0.39 nM.

For `COc1cnc(C(F)F)cc1-c1cc(-c2cnn(C3CCNCC3)c2)ncc1C(=O)Nc1nnc(C#CC2CC2)s1` [Compound 398], the IC50 is 2.1 nM.

`COc1cnc(C(F)F)cc1-c1cc(-c2cnn(C3CCN(C)CC3)c2)ncc1C(=O)Nc1nnc(C#CC2CC2)s1` [Compound 399] displayed an IC50 of 1.5 nM. The IC50 values of the last two compounds are within 1.5-fold of each other.

For `COc1cnc(C(F)F)cc1-c1cc(N2C(=O)COCC2C)ncc1C(=O)Nc1nnc(C#CC2CC2)s1` (stereo not shown) [Compound 400], the 50% inhibitory concentration (IC50) worked out at 0.46 nM.

For the compound `COc1cnc(C(F)F)cc1-c1cc(Cc2nnc(C)o2)ncc1C(=O)Nc1ncc(C#CC2CC2)s1` [Compound 401], the IC50 was below 0.25 nM.

Consider `COc1cnc(Cl)nc1-c1cc(-c2nnc(C)o2)ccc1C(=O)Nc1nnc(C#CC2CC2)s1` [Compound 402], for which half-maximal inhibition (IC50) required 0.88 nM.

Turning to `O=C(Nc1nnc(C#CC2CC2)s1)c1cnc(-n2ccccc2=O)cc1-c1cc(C(F)F)ncc1Cl` [Compound 403], the IC50 was below 0.25 nM.

`COc1cnc(C(F)F)cc1-c1cc(-c2nccn2C)ncc1C(=O)Nc1nnc(C#CC2CC2)s1` [Compound 404] came in with an IC50 below 0.25 nM.

The values above are taken from patent publication US20250026748A1, “N-(5-SUBSTITUTED-[(1,3,4-THIADIAZOLYL) OR (THIAZOLYL)])(SUBSTITUTED)CARBOXAMIDE COMPOUNDS AND USE THEREOF FOR INHIBITING HUMAN POLYMERASE THETA” (Repare Therapeutics Inc., priority 2021, published 2025).
